Reference: PMC8235216, “Structural Evidence of Active Site Adaptability towards Different Sized Substrates of Aromatic Amino Acid Aminotransferase from Psychrobacter Sp. B6” (Materials, 2021)

What was measured:
Format in all cases: binding
[1] = biological target: T1, PsyArAT (psychrophilic aromatic amino acid aminotransferase) (Psychrobacter sp. B6, UniProt C7E5X4); assay: X-ray crystal structure (co-crystallisation); conditions: active site, competitive inhibitor; both monomers; 20-fold molar excess of ligand; pH 7.5; partial PLP occupancy
T1 construct: full-length Met1-Asp398, homodimer; E. coli; FOH/YOH/DOH complexes: protein as described previously; new construct: codon-optimised gene in pMCSG7, His6 tag removed by TEV, ArcticExpress (DE3)
T1 sequence (C7E5X4 entry or part of it): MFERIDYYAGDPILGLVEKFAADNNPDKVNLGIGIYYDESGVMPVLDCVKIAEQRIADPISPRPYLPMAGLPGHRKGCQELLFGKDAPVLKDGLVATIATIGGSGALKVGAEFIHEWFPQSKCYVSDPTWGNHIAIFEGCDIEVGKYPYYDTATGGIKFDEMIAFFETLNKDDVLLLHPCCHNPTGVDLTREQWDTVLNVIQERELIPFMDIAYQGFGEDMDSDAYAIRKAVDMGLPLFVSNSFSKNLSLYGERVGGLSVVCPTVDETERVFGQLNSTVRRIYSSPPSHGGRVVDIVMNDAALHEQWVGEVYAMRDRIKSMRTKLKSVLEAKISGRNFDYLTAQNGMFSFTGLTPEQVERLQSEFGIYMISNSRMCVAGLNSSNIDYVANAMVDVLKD

[2] = biological target: T1, PsyArAT (psychrophilic aromatic amino acid aminotransferase); assay: X-ray crystal structure (soaking of native crystals); conditions: active site, competitive inhibitor; bound in monomers A and C only; 10-fold molar excess of ligand, 5-fold PLP; pH 7.5
[3] = biological target: T1, PsyArAT (psychrophilic aromatic amino acid aminotransferase); assay: X-ray crystal structure (crystals grown in DL-malic acid); conditions: active site, competitive inhibitor; 2.1 M DL-malic acid pH 7.0, 0.1 M Tris-HCl pH 7.5

SMILES	X-ray crystal structure (co-crystallisation) [1]	other results
O=C(O)[C@@H](O)Cc1ccccc1 [FOH, 3-phenyllactic acid]	carboxyl group of FOH creates two parallel hydrogen bonds with the guanidine group of Arg374	
O=C(O)[C@@H](O)Cc1c[nH]c2ccccc12 [WOH, 3-indolelactic acid]		X-ray crystal structure (soaking of native crystals) [2]: The carboxylic group of the WOH is planar to the Arg374 guanidine group
O=C(O)[C@@H](O)Cc1ccc(O)cc1 [YOH, 3-(4-hydroxyphenyl)-lactic acid]	interaction of the YOH inhibitor with the residues forming the active site of subunit A	
O=C(O)C[C@H](O)C(=O)O [DOH, L-malic acid]		X-ray crystal structure (crystals grown in DL-malic acid) [3]: only L-malic acid (DOH) was bound in the active center
